Source: patent US4228174A, “Clavulanic acid ethers” (priority 1975, dated 1980)
Where a name gives a salt, the structure may show the parent alone.

What was measured:
[1] = test system: Klebsiella I.112 infection; assay: CD50 of amoxycillin alone and with synergist, oral dosing at 1, 3 and 5 hours; assay type: in vivo; settings: (×3) mice, oral at 1, 3 and 5 hours post infection
Description: f. CD50 values of amoxycillin alone and together with a salt of O-methylclavulanic acid or O-ethylclavulanic acid against a Klebsiella I.112 infection. The test compounds were administered orally to mice at 1, 3 and 5 hours post inter peritoneal infection.
[In these tests amoxycillin trihydrate equivalent to the stated weights of amoxycillin were used].

[2] = test system: Staphylococcus aureus Russell; assay: Standard MIC test of ampicillin in the presence of compounds of the invention; assay type: cell-based; settings: ampicillin alone, read-out: Concentration of ampicillin in the absence of synergist that did not inhibit growth
Description: b. When tested in standard MIC tests in combination with ampicillin the compounds of this invention are seen to enhance the effectiveness of the penicillin against various gram-positive and gram-negative organisms such as strains of Staphylococcus aureus Russell, Klebsiella aerogenes, Proteus mirabilis and Escherichia coli: for example the following MIC values against Staphylococcus aureus Russell were obtained for ampicillin in the presence of 1 μg/ml of certain compounds of the invention:
None of the synergists inhibited the growth of the test organism at 5 μg/ml.

E. coli JT 68 = assay: MIC of ampicillin alone and together with sodium O-methylclavulanate; assay type: cell-based; settings: Escherichia coli, JT68, 0 μg/ml of sodium O-methylclavulanate
Source text: (§1) c. MIC values of ampicillin alone and together with sodium O-methylclavulanate against 3 strains of Straphylococcus aureus and 3 strains of R^+ E. coli

Staph. H = assay: as above; assay type: cell-based; settings: Staphylococcus aureus, 0 μg/ml of sodium O-methylclavulanate
Source text: as §1

Staph. M B9 = assay: as above; assay type: cell-based; settings: Staphylococcus aureus, 0 μg/ml of sodium O-methylclavulanate
Source text: as §1

Staph. Russell = assay: as above; assay type: cell-based; settings: Staphylococcus aureus, 0 μg/ml of sodium O-methylclavulanate
Source text: as §1

E. coli JT 39 = assay: as above; assay type: cell-based; settings: Escherichia coli, JT39, 0 μg/ml of sodium O-methylclavulanate
Source text: as §1

E. coli JT 98 = assay: as above; assay type: cell-based; settings: Escherichia coli, JT98, 0 μg/ml of sodium O-methylclavulanate
Source text: as §1

[3] = molecular target: Klebsiella aerogenes E70 β-lactamase; assay: β-lactamase inhibition I50; assay type: biochemical
[4] = molecular target: T1, Staphylococcus aureus Russell β-lactamase (Staphylococcus aureus, UniProt P00807); assay: β-lactamase inhibition I50; assay type: biochemical
T1 construct: host or cells: Staphylococcus aureus Russell
T1 sequence (P00807 25-281): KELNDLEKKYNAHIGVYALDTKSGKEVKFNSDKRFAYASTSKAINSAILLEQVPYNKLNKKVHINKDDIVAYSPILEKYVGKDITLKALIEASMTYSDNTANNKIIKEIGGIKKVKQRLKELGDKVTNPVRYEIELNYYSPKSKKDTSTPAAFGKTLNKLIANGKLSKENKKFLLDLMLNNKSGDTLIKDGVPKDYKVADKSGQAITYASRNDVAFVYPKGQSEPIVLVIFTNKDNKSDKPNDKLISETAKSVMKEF

P. moig, Cr. β-lactamase = assay: β-lactamase inhibition I50; assay type: biochemical
[5] = molecular target: T2, Escherichia coli JT4 β-lactamase (Escherichia coli, UniProt P62593); assay: β-lactamase inhibition I50; assay type: biochemical
T2 construct: host or cells: Escherichia coli JT4
T2 sequence (P62593 24-286 limits assumed): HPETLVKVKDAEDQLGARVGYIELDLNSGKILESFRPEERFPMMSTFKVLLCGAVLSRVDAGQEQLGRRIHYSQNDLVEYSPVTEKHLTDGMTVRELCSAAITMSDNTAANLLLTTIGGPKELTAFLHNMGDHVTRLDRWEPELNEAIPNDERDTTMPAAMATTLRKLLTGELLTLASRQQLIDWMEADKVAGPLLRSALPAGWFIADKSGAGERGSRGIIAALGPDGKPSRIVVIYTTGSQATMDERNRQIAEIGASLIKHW

[6] = molecular target: Pseudomonas aeruginosa β-lactamase; assay: β-lactamase inhibition I50; assay type: biochemical
[7] = molecular target: T3, Escherichia coli JT410 β-lactamase (Escherichia coli, UniProt P00811); assay: β-lactamase inhibition I50; assay type: biochemical
T3 construct: host or cells: Escherichia coli JT410
T3 sequence (P00811 20-377): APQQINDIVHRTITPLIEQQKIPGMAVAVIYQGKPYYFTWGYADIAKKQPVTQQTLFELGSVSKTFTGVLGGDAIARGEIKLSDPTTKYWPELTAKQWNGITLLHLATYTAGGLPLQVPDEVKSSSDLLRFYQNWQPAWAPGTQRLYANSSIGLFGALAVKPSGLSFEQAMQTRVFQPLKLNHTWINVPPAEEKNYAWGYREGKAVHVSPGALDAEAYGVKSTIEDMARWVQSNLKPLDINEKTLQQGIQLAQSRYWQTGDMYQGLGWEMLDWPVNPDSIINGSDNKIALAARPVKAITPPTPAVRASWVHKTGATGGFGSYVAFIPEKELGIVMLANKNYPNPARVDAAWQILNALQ

[8] = molecular target: Proteus mirabilis C889 β-lactamase; assay: β-lactamase inhibition I50; assay type: biochemical
[9] = molecular target: T4, Pseudomonas dalgleish β-lactamase (Pseudomonas aeruginosa, UniProt P16897); assay: β-lactamase inhibition I50; assay type: biochemical
T4 construct: host or cells: Pseudomonas aeruginosa Dalgleish
T4 sequence (P16897 18-288): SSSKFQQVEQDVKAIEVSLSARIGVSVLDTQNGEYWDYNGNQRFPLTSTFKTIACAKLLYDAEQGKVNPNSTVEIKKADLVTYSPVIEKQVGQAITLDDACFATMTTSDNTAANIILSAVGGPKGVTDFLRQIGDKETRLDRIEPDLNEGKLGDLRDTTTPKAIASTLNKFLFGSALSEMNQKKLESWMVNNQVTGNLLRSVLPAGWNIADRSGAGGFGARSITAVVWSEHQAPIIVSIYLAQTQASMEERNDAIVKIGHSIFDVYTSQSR

[10] = Blood levels in mice after oral administration; assay type: in vivo; settings: mouse, 20 mg/kg, read-out: Blood level
Description: b. Blood levels in mice after oral administration of 20 mg/kg of sodium O-methylclavulanate

[11] = test system: 3 strains of Straphylococcus aureus and 3 strains of R+ E. coli; assay: MIC of sodium O-methylclavulanate alone against each test organism; assay type: cell-based, Staphylococcus aureus; E. coli; settings: read-out: MIC of sodium O-methylclavulanate against each test organism
Description: as §1
The MIC of sodium O-methylclavulanate against each test organism was in the range 20-40 μg/ml.

[12] = Blood levels in mice after sub-cutaneous administration; assay type: in vivo; settings: mouse, sc, 50 mg/kg, read-out: Blood level, mean result for 5 mice; for concentration at 0.5 h: 30 min; for concentration at 0.75 h: 45 min; for concentration at 1 h: 60 min; for concentration at 1.5 h: 90 min
Description: a. Blood levels in mice after sub-cutaneous administration of 50 mg/kg of a solution of sodium O-methylclavulanate

[13] = Toxicity in mice, sub-cutaneous administration (LD50); settings: mouse, in vivo, sc
[14] = test system: E. coli JT 39 (R+) infection; assay: CD50 of amoxycillin with a salt of O-ethylclavulanic acid or clavulanic acid, similar test dosing at 1, 3 and 5 hours; assay type: in vivo; settings: (×3) dosing at 1, 3 and 5 hours post infection
Description: (§2) e. CD50 values of amoxycillin alone and together with a salt of O-ethylclavulanate acid against an E. coli JT 39 (R^+) infection. The test compounds were administered to mice sub-cutaneously in freshly prepared buffered saline (0.4 mg/ml) at 1 hour and 5 hours post inter peritoneal infection.
In a similar test dosing at 1, 3 and 5 hours post infection the following results were obtained: […]

[15] = test system: E. coli JT 39 (R+) infection; assay: CD50 with sodium O-methylclavulanate or sodium clavulanate as synergist, dosing at 1 and 5 hours; assay type: in vivo; settings: (×2) sub-cutaneous at 1 and 5 hours post infection
Description: d. […]
The test compounds were administered sub-cutaneously in freshly prepared buffered saline at 1 hour and 5 hours post intra peritoneal infection: […]

[16] = test system: E. coli JT 39 (R+) infection; assay: CD50 of amoxycillin with a salt of O-ethylclavulanic acid or clavulanic acid, dosing at 1 and 5 hours; assay type: in vivo; settings: (×2) mice, sub-cutaneous at 1 and 5 hours
Description: as §2

[17] = Blood level in test mammals; assay type: in vivo; settings: compared with an equivalent amount of the salt of clavulanic acid
[18] = columns Synergist = Salt of clavulanic acid

Molecule `CC1(C)S[C@@H]2[C@H](NC(=O)[C@H](N)c3ccc(O)cc3)C(=O)N2[C@H]1C(=O)O` [Amoxycillin] has an ED50 [1] greater than 1000 mg/kg.

`CC1(C)S[C@@H]2[C@H](NC(=O)[C@H](N)c3ccccc3)C(=O)N2[C@H]1C(=O)O` [Ampicillin, ampicillin] showed an MIC [2] greater than 250 µg/mL, an MIC (E. coli JT 68) of 2560 µg/mL and an MIC (Staph. H) of 640 µg/mL. The MIC (Staph. M B9) was 640 µg/mL, the MIC (Staph. Russell) was 80 µg/mL and the MIC (E. coli JT 39) was greater than 2560 µg/mL. The MIC (E. coli JT 98) was 1280 µg/mL.

For `COC/C=C1\O[C@@H]2CC(=O)N2[C@H]1C(=O)OC` [Example 1, Methyl 9--O--methylclavulanate], the “β-lactamase inhibition I50, Klebsiella aerogenes E70” value [3] was 0.25 µg/mL, the IC50 [4] was 2200 nM and the “β-lactamase inhibition I50, P. moig, Cr.” value (P. moig, Cr. β-lactamase) was 0.68 µg/mL. For the same molecule, the IC50 [5] was 3960 nM, the “β-lactamase inhibition I50, Pseudomonas aeruginosa” value [6] was 1.9 µg/mL and the IC50 [7] was 13600 nM.

With `COC/C=C1\O[C@@H]2CC(=O)N2[C@H]1C(=O)OCc1ccccc1` [Example 2, Benzyl 9-O-methylclavulanate] the “β-lactamase inhibition I50, Klebsiella aerogenes E70” value [3] was 0.05 µg/mL, the IC50 [4] was 165 nM and the IC50 [5] was 330 nM. For the same molecule, the “β-lactamase inhibition I50, Proteus mirabilis C889” value [8] was less than 0.07 µg/mL, the “β-lactamase inhibition I50, Pseudomonas aeruginosa” value [6] was 1.4 µg/mL and the IC50 [9] was less than 231 nM.

In the case of `COC/C=C1\O[C@@H]2CC(=O)N2[C@H]1C(=O)O` [Example 3, Sodium 9-O-methylclavulanate], the “β-lactamase inhibition I50, Klebsiella aerogenes E70” value [3] is reported as 0.07 µg/mL, the IC50 [4] is reported as 235 nM and the concentration at 0.25 h ([10]; 15 min) is reported as 5200 ng/mL. For the same molecule, the concentration at 0.5 h ([10]; 30 min) was 3400 ng/mL, the concentration at 0.75 h ([10]; 45 min) was 2200 ng/mL and the concentration at 1 h ([10]; 60 min) was 1200 ng/mL. For the same molecule, the concentration at 1.5 h ([10]; 90 min) was 500 ng/mL, the IC50 [5] was 844 nM and the “β-lactamase inhibition I50, Proteus mirabilis C889” value [8] was 0.01 µg/mL. It also gave an MIC [11] of 20 to 40 µg/mL, a concentration at 10 min [12] of 14500 ng/mL and a concentration at 20 min [12] of 12800 ng/mL. For the same molecule, the concentration at 0.5 h [12] was 7900 ng/mL, the concentration at 0.75 h [12] was 4100 ng/mL and the concentration at 1 h [12] was 1400 ng/mL. The concentration at 1.5 h [12] was 480 ng/mL.

With `COC(=O)[C@H]1/C(=C/COCc2ccccc2)O[C@@H]2CC(=O)N21` [Example 4, Methyl 9-O-benzylclavulanate] the “β-lactamase inhibition I50, Klebsiella aerogenes E70” value [3] was 0.8 µg/mL, the IC50 [4] was 16.5 nM and the IC50 [5] was 2640 nM.

With `O=C(O)[C@H]1/C(=C/COCc2ccccc2)O[C@@H]2CC(=O)N21` [Example 5, Sodium 9-O-benzylclavulanate] the LD50 [13] was greater than 250 mg/kg, the “β-lactamase inhibition I50, Klebsiella aerogenes E70” value [3] was 0.04 µg/mL and the IC50 [4] was 17.3 nM. The IC50 [5] was 346 nM, the “β-lactamase inhibition I50, Proteus mirabilis C889” value [8] was 0.02 µg/mL and the IC50 [9] was 27.7 nM.

For `CCOC(=O)COC/C=C1\O[C@@H]2CC(=O)N2[C@H]1C(=O)OCc1ccccc1` [Example 6, Benzyl 9-O-ethoxycarbonylmethylclavulanate], the “β-lactamase inhibition I50, Klebsiella aerogenes E70” value [3] was 0.30 µg/mL, the IC50 [4] was 320 nM and the IC50 [5] was 373 nM. The “β-lactamase inhibition I50, Proteus mirabilis C889” value [8] was 1.0 µg/mL.

In the case of `CCOC(=O)COC/C=C1\O[C@@H]2CC(=O)N2[C@H]1C(=O)O` [Example 7, Sodium 9-O-ethoxycarbonylmethylclavulanate], the “β-lactamase inhibition I50, Klebsiella aerogenes E70” value [3] is reported as 0.034 µg/mL, the IC50 [4] is reported as 154 nM and the IC50 [5] is reported as 561 nM. For the same molecule, the “β-lactamase inhibition I50, Proteus mirabilis C889” value [8] was 0.025 µg/mL.

`N#CCOC/C=C1\O[C@@H]2CC(=O)N2[C@H]1C(=O)O` [Example 12, Sodium 9-O-cyanomethylclavulanate] showed an LD50 [13] greater than 250 mg/kg.

For `CC1(C)S[C@@H]2[C@H](NC(=O)[C@H](N)c3ccc(O)cc3)C(=O)N2[C@H]1C(=O)O` [Sodium Amoxycillin], the “CD50 of Sodium Amoxycillin alone” value [14, 18] was greater than 1000 mg/kg, the ED50 ([14]; Escherichia coli, in Mus musculus, sc, columns Synergist = Salt of O-ethylclavulanic acid, read-out: CD50 of Sodium Amoxycillin alone) was greater than 1000 mg/kg and the “CD50 of Sodium Amoxycillin alone” value ([15]; columns Synergist = Sodium clavulanate) was greater than 1000 mg/kg. For the same molecule, the ED50 ([15]; Escherichia coli, sc, columns Synergist = Sodium O-methylclavulanate, read-out: CD50 of Sodium Amoxycillin alone) was greater than 1000 mg/kg, the “CD50 of Sodium Amoxycillin alone” value [16, 18] was greater than 1000 mg/kg and the ED50 ([16]; Escherichia coli, sc, columns Synergist = Salt of O-ethylclavulanic acid, read-out: CD50 of Sodium Amoxycillin alone) was greater than 1000 mg/kg.

`O=C(O)[C@H]1/C(=C/CO)O[C@@H]2CC(=O)N21` [Sodium clavulanate, reference compound] gave a concentration at 10 min [12] of 9300 ng/mL, a concentration at 20 min [12] of 8700 ng/mL and a concentration at 0.5 h [12] of 2990 ng/mL. It also gave a concentration at 0.75 h [12] of 1950 ng/mL, a concentration at 1 h [12] of 500 ng/mL and a concentration at 1.5 h [12] of 90 ng/mL.

For `COC/C=C1\O[C@@H]2CC(=O)N2[C@H]1C(=O)O` [salt of O-methylclavulanic acid], the “Blood level after administration, in words” value [17] was “more prolonged blood level”.
